Where “and” joins values, the source holds several entries; their conditions need not be identical. Equal values may be shown once.
Tests used:
[1] = patients, cited from earlier work; for Mean body weight increase over a period of ten weeks: Allison et al., Am J. Psychiatry 1999
[2] = system: tyrosine aminotransferase (TAT) in HepG2 cells; settings: HepG2 human liver hepatocellular carcinoma cell line; cited from earlier work
[3] = patients; doubled from 1.3±0.5 at baseline; Ebenbichler et al. 2003; cited from earlier work
[4] = olanzapine prescribing information; cited from earlier work
[5] = Description: The dose level tested in our Phase 1b trial was 600 mg/day.
A 2-week, single-center, double-blind, randomized, placebo-controlled study was conducted in healthy male subjects age 18-55 years with BMI between 18-25 kg/m^2 and a stable body weight (defined as the Day 1 pre-dose body weight to be within ±2.0% of screening body weight). […] Food was freely available to all subjects during the study. The difference in mean change in absolute body weight after administration of OLZ+PBO compared to OLZ+MIRI was evaluated using a repeated measures model with imputation applied to missing values.
(HOMA2-IR values were calculated from fasted glucose and insulin levels using the HOMA (HOMA2 Model) Calculator® application programming interface for SAS (Oxford University 2013, available at the website www.dtu.ox.ac.uk/homacalculator)).

[6] = healthy male subjects, listed as miricorilant = MIRI 600 mg/day + OLZ 10 mg/day, listed as olanzapine = placebo + OLZ 10 mg/day
[7] = healthy male subjects, listed as miricorilant = MIRI 600 mg/day + OLZ, listed as olanzapine = placebo + OLZ 10 mg/day, unit given in Table 1, not in Table 2
[8] = healthy male subjects, listed as miricorilant = olanzapine+miricorilant, listed as olanzapine = olanzapine+placebo
[9] = healthy male subjects, listed as miricorilant = olanzapine+miricorilant, listed as olanzapine = olanzapine+placebo, from Table 2 with Table 1 baselines

## CN1CCN(C2=Nc3cc(Cl)ccc3Nc3ccccc32)CC1 [clozapine]
[1]
  Mean body weight increase over a period of ten weeks: 4.45 kg

## CC#C[C@]1(O)CC[C@H]2[C@@H]3CCC4=CC(=O)CCC4=C3[C@@H](c3ccc(N(C)C)cc3)C[C@@]21C [mifepristone]
[2]
  Effect on activity of tyrosine aminotransferase (TAT) in HepG2 cells: decreases

## Cc1cc2c(s1)Nc1ccccc1N=C2N1CCN(C)CC1 [olanzapine, reference compound]
[3]
  HOMA-IR after 8 weeks of olanzapine treatment: 2.6±1.4 mmol/mU·L
[1]; Allison et al. 2001
  Weight gained after about 40 weeks of administration: 7 to 8 kg
[4]
  Adult patients with triglyceride increases of ≥50 mg/dL at 12 weeks: ~40%
  Adult patients with triglyceride increases of ≥50 mg/dL at 48 weeks: more than 60%
[5]; [6]
  Body weight increase from baseline on Day 8: 3.5 kg and 3.49 kg
  Body weight increase from baseline on Day 15: 5.0 kg and 4.99 kg
  HOMA2-IR increase from baseline on Day 8: 1.15
  Insulin increase from baseline on Day 8: 9.14 mIU/L
  Insulin increase from baseline on Day 15: 9.65 mIU/L
[5]; [7]
  Triglycerides increase from baseline on Day 8: 1.09 mmol/L
  Triglycerides increase from baseline on Day 15: 0.62 mmol/L
[5]; [8]
  Insulin increase from baseline, percent, day 15: 127%
  Triglycerides increase from baseline, percent, day 8: 115%
  Triglycerides increase from baseline, percent, day 15: 65%
[5]; [9]
  Body weight increase from baseline, percent of baseline, day 8: 4.9%
  Body weight increase from baseline, percent of baseline, day 15: 6.9%
[5]; male, human, in vivo, 14 days
  Number of participants who discontinued the study due to elevated liver enzymes: 5

## OCCOCCN1CCN(C2=Nc3ccccc3Sc3ccccc32)CC1 [quetiapine]
[1]; Allison et al. 2001
  Weight gained after treatment for a "short time": about 3 kg

## Cc1nc2n(c(=O)c1CCN1CCC(c3noc4cc(F)ccc34)CC1)CCCC2 [risperidone]
[1]; Allison et al. 2001
  Weight gained over 8-12 weeks: 2 to 3 kg

## O=C1NCCN1CCN1CCC(c2cn(-c3ccc(F)cc3)c3ccc(Cl)cc23)CC1 [sertindole]
[1]
  Mean body weight increase over a period of ten weeks: 2.92 kg

From patent US11903945B2, “Methods of treating antipsychotic-induced weight gain with miricorilant” (Corcept Therapeutics Incorporated, priority 2019, dated 2024)
